The record followed here is patent publication US6872712B1, “Cyclic glycerophosphates and analogs thereof” (Yeda Research and Development Co. Ltd., priority 1999, dated 2005).

The subject of data set [1] is tyrosine phosphorylated proteins in CHO cells. Briefly: Tyrosine phosphorylation in CHO cells (Western blot with anti-phosphotyrosine antibodies). In kind it is cell-based, Chinese hamster. The settings on record: CHO cells, 1, 3, 5 or 10 mins at 37° C., 1 μM or 2 μM, monoclonal antibodies (FIG. 2). The method, then: Chinese hamster ovary (CHO) cells (Puck, 1985; Gottesman, 1987) and NIH-3T3 cells (NIH), were used in the following experiments. CHO cells were grown at 37° C. in a humidified 5% CO2 atmosphere in 60×15 mm Petri dishes (Falcon) containing F12 medium supplemented with 10% fetal calf serum (FCS) and 2 mM glutamine. When reaching near confluence, the cells were placed under overnight starvation by replacing the medium to F12+2 mM glutamine with 0.1% FCS. The stimulation experiments were performed with cells which were under starvation for 12-18 hours.
(§1) The cyclic phosphates 1,3 cGP, 1,3 cPP, 1,2 cGP, 1,2 cPP, P-1,3 cGP and P-1,3 cPP and the controls αGP and βGP were dissolved in HBSS, or methanol to form stocks of 1 mM or 10 mM. They were diluted into the cell culture medium to a final concentration of up to 20 μM. At the assigned stimulation time (0.5-20 min.) the medium was aspirated under vacuum and the cells were washed 3 times with cold (4° C.) phosphate buffered saline (PBS). […] The protein concentration in each sample, as evaluated by the Bradford assay, was in the range of 1-1.5 mg/ml. […] Bound antibodies were detected by horseradish peroxidase-conjugated anti-rabbit antibodies (Transduction Laboratories, Lexington Ky.) after 2 hours incubation at room temperature, using the conventional ECL detection method. […]
In general terms: In western blotting, separated proteins are transferred to a membrane and probed.

Data set [2] deals with tyrosine phosphorylated proteins in NIH 3T3 cells. Briefly: Tyrosine phosphorylation in NIH 3T3 cells (Western blot with anti-phosphotyrosine antibodies). Format: cell-based. The settings on record: 1 min or 5 mins at 37° C., 0.5, 1, 2 or 4 μM, monoclonal antibodies (FIG. 3). The procedure:
NIH-3T3 cells were grown under similar conditions in 1640 Eagle medium at 10% bovine calf serum plus 2 mM glutamine.
as §1, with “(PBS). The cells were then freeze-thawed 3 times with liquid nitrogen in 0.5 ml of a lysis buffer of PBS containing 1 mM phenylmethylsulfonyl fluoride, a cocktail of protease inhibitors (aprotinin, leuproptin, pepstatin A, phenanthroline, benzamidine HCl each at a concentration of 10 μg/ml) and a cocktail of phosphatase inhibitors (80 mM β-glycerophosphate, 2 mM EGTA and 50 μM Na3VO4), and then scraped off. The lysate was then vortexed and centrifuged for 2 minutes at 12.000 g.” for “(PBS).”

The subject of another data set is cell lysate phosphatases. Briefly: Inhibition of phosphatase activity of cell lysate (PNPP substrate). The settings on record: 50 μM, 50 mM PNPP, 90 minutes at 37° C., pH 7.4. In kind it is biochemical. The procedure:
Inhibition of phosphatase activity of cell lysate by cyclic phosphates was assayed in 1.0 ml of 50 mM Tris-HCl buffer, pH 7.4, containing 50 mM p-nitrophenyl phosphate, PNPP, as a substrate. Reaction was initiated by the addition of crude cell lysate (100 μg/ml final protein concentration) and terminated after 90 minutes at 37° C. by an addition of 50 μl of 1M NaOH. […] Assays were conducted under the same conditions as above in the presence of 50 μM cyclic phosphate. The enzyme activity in the absence of inhibitor was taken as 100% activity.

For another data set, the system named is perforated CHO cells. Briefly: Intracellular binding in perforated CHO cells (displacement of 1,3-cP32P). More on the design: species or system Chinese hamster. The settings on record: 20 μM 1,3-cP32P, 5 minutes at 4° C., increasing amounts of competitor (FIG. 9). The procedure:
Radioactivity was scored after 2 washings with PBS at 4° C. as above. […] In this set of experiments the number of displaceable (i.e. specifically bound) ligands was estimated to be in the range of 10^7-10^8 per cell.

The next data set has as its system CHO cells. Briefly: Uptake of 32P labeled 1,3-cPP by CHO cells. The settings on record: intact CHO cells, increasing amounts of unlabeled compound. Format: cell-based, Chinese hamster. The procedure:
After 2 washings with PBS the cells were disintegrated in 1 M NaOH and radioactivity was scored with a β counter. The insert presents the magnified uptake profile for short incubations (up to 2 minutes) where the intercept (0 time incubation) corresponded to approximately 3×10^6 molecules per cell, while at equilibrium (above 2 hours incubation) incorporation corresponded to approximately 2×10^8 molecules per cell.

In data set [3] the test system is T47D human breast cancer cells. As to the kind of experiment: Proliferation of T47D human breast cancer cells (3H-thymidine). In kind it is cell-based. The settings on record: 50 μM 1,3-cPP salt, days 1, 2 and 3 (P 0.0370, 0.0192, 0.0238) (FIG. 12). The method, then:
In this experiment, 8×10^4 T47D (clone 11) human breast cancer cells were plated in sets of 6 in 96 well microtiter plates and titrated concentrations (1-50 μM final concentrations) of 1,3-cPP salt in complete medium were added to the cultures at the beginning of the experiment only in a total volume of 200 μl per well. Plates were incubated at 37° C. over the course of 5 days, where 1 plate was pulsed with ^3H-thymidine (Sigma) overnight each day and subsequently frozen. All the plates were harvested together (Packard Micromate 196 Harvester, Merriden, Conn.) and scored on a 96 well plate reader (Packard Matrix 96, Merriden, Conn.).

For the next data set, the system named is insulin receptor. Briefly: Tyrosine phosphorylation of the insulin receptor in CHO-T cells. The settings on record: 20 mins, 0.1 μM 1,3 cPP in combination with 0.1 nM insulin (FIG. 10). In kind it is cell-based. The method, then:
Group 4: 0.1 μM 1,3, cPP only.
Tyrosine phosphorylation was determined using anti-phosphotyrosine antibody (as described above).

Data set [4] can be described thus: Stability of cyclic phosphates in PBS / aqueous solution (TLC). Format: physicochemical. The settings on record: 10 mg/ml in PBS, 37°, up to 24 hours.
Description: These possibilities were tested with the 4 cyclic phosphates (1,2 cGP, 1,3 cGP, 1,2 cPP and 1,3 cPPP (see Appendix A) in either aqueous solution or in cell lysates of CHO or NIH-3T3 cells (see Materials and Methods). 10 mg/ml cyclic phosphate in 1 ml of either PBS or PBS mixed with cell lysate (0.1 mg/ml protein) and incubated at 37° for up to 24 hours. Samples were tested at different times by thin layer chromatography on Silica gel 60 with n-propanol, concentrated ammonia, H2O (6:3:1 v/v/v). The Rr values for all 4 cyclic phosphates was in the range of 0.45-0.55 while α-GP and β-GP had Rf=0.14-0.16. This distinct difference allowed the qualitative detection of hydrolysis of the cyclic phosphate.
A short description of data set [5]: Stability of cyclic phosphates in cell lysates (TLC). The settings on record: 10 mg/ml in PBS mixed with CHO or NIH-3T3 cell lysate (0.1 mg/ml protein), 37°, up to 24 hours.
Excerpt: This distinct difference allowed the qualitative detection of hydrolysis of the cyclic phosphate.
Another data set deals with K562 leukemia cells. As to the kind of experiment: Differentiation of K562 leukemia cells (hemoglobin, benzidine assay). In kind it is cell-based. The settings on record: 4 days, 10 μM 1,3 cPP in combination with 1.5 mM sodium butyrate (FIG. 13). The procedure:
K562 leukemia cells are able to differentiate to the erythroid lineage. Such differentiation is characterized by the cells' ability to synthesize hemoglobin. Sodium butyrate is a known differentiation agent of such leukemia cells.
In this example, the ability of 1,3 cPP, α-GP and sodium butyrate alone and n combination to cause differentiation of K562 cells was evaluated using the known benzidine assay.
K562 cells were incubated for a period of 4 days with the following: • (a) growth medium (control); • (b) 10 μM of 1,3 cPP; • (c) […] of α-GP; • (d) 1.5 mM of sodium butyrate; • (e) a combination of sodium butyrate and 1,3 cPP; and • (f) sodium butyrate and α-GP.

Regarding `O=P1(O)OCCCO1` [1,3 cPP, 1,3 cyclic propanediol phosphate], the “level of tyrosine phosphorylated proteins” value is “phosphorylation was most markedly seen in the band(s) having a molecular weight of about 35 kD and about 45 kD” in data set [1]; “augmented tyrosine phosphorylation” in data set [2]. The “inhibition of cell lysate phosphatase activity” value in the data set on cell lysate phosphatases is on record as 15-20%. The “displacement of 1,3-cP32P in perforated CHO cells” value in the data set on perforated CHO cells is given as “specific binding”. Further, in the data set on CHO cells, the “effect of unlabeled competitor on the uptake profile of 1,3-cP32P” value was “remained essentially unaltered”. In data set [3], the “proliferation versus cells in growth medium only” value was “significant inhibition”. For the same molecule, the “phosphorylation of insulin receptor (117 kD and 200 kD bands) relative to insulin only” value in the data set with insulin receptor was “almost doubled”. Further, the “hydrolysis to the linear form in PBS” value in data set [4] is given as “No hydrolysis”. In data set [5], the “hydrolysis to the linear form by cell lysate” value is given as “No hydrolysis”. Also, the “synthesis of hemoglobin relative to sodium butyrate alone” value with K562 leukemia cells is 3 fold.
